Patent US12459974B2, “Bicyclic peptide ligands specific for Nectin-4” (priority 2018, dated 2025)
*1 amine or outer side, *2 acyl side, *3 side chain or, on linkers, in order; H or OH if unused. Where a SMILES comes first, the peptide text is derived from it. Bridges are numbered along the chain shown (N, C = ends). Roman numbers before positions name the chains, in order. [ ]: non-standard residue; d: D form. The star is where a group is joined. ξ: configuration not given here. TATA = O=C(CC[*:1])N1CN(C(=O)CC[*:2])CN(C(=O)CC[*:3])C1; Dolaproine = CO[C@@H]([C@@H]1CCCN1)[C@@H](C)C(=O)O; X1 = CC[C@H](C)C(C(CC(=O)[*:2])OC)N(C)[*:1]; 1Nal = N[C@@H](Cc1cccc2ccccc12)C(=O)O; X3 = O=C(CCCC(=O)[*:2])NCCC(=O)[*:1]; PABC = O=C(OCc1ccc(N[*:1])cc1)[*:2]; Hyp = O=C(O)[C@@H]1C[C@@H](O)CN1; hArg = N=C(N)NCCCC[C@H](N)C(=O)O; Cit = NC(=O)NCCC[C@H](N)C(=O)O; X2 = CC(N*)[C@@H](O)c1ccccc1; ξNMeV = CNC(C(=O)O)C(C)C; ξV = CC(C)C(N)C(=O)O; Sar = CNCC(=O)O

Legend:
[1] = biological target: T1, human Nectin-4 (Homo sapiens, UniProt Q96NY8); assay: Nectin-4 Biacore SPR binding assay
T1 sequence (Q96NY8 32-349): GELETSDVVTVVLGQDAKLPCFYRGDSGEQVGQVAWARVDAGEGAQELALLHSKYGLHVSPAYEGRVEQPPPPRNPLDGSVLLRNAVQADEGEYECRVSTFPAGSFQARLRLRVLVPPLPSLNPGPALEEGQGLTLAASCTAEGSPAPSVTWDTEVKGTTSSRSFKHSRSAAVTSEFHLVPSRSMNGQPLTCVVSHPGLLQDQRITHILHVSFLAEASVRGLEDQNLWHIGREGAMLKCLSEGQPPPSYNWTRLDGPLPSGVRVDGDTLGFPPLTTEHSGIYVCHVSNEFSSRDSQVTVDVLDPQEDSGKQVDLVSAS
Description: Biacore experiments were performed to determine ka (M^−1 s^−1), kd (s^−1), KD (nM) values of monomeric peptides binding to human Necin-4 protein (obtained from Charles River).
Human Nectin-4 (residues Gly32-Ser349; NCBI RefSeq: NP_112178.2) with a gp67 signal sequence and C-terminal FLAG tag was cloned into pFastbac-1 and baculovirus made using standard Bac-to-Bac™ protocols (Life Technologies). Sf21 cells at 1×10^6 ml^−1 in Excell-420 medium (Sigma) at 27° C. were infected at an MOI of 2 with a P1 virus stock and the supernatant harvested at 72 hours. […] The protein was eluted with 100 μg/ml FLAG peptide. The eluted protein was concentrated to 2 ml and loaded onto an S-200 Superdex column (GE Healthcare) in PBS at 1 ml/min. 2 ml fractions were collected and the fractions containing Nectin-4 protein were concentrated to 16 mg/ml.
The protein was extensively desalted to remove uncoupled biotin using spin columns into PBS.
For analysis of peptide binding, a Biacore 3000 instrument was used utilising a CM5 chip (GE Healthcare). Streptavidin was immobilized on the chip using standard amine-coupling chemistry at 25° C. with HBS-N (10 mM HEPES, 0.15 M NaCl, pH 7.4) as the running buffer. Briefly, the carboxymethyl dextran surface was activated with a 7 minute injection of a 1:1 ratio of 0.4 M 1-ethyl-3-(3-dimethylaminopropyl) carbodiimide hydrochloride (EDC)/0.1 M N-hydroxy succinimide (NHS) at a flow rate of 10 μl/min. For capture of streptavidin, the protein was diluted to 0.2 mg/ml in 10 mM sodium acetate (pH 4.5) and captured by injecting 120 μl of streptavidin onto the activated chip surface. Residual activated groups were blocked with a 7 minute injection of 1 M ethanolamine (pH 8.5) and biotinylated Nectin-4 captured to a level of 1,200-1,800 RU. Buffer was changed to PBS/0.05% Tween 20 and a dilution series of the peptides was prepared in this buffer with a final DMSO concentration of 0.5%. The top peptide concentration was 100 nM with 6 further 2-fold dilutions. The SPR analysis was run at 25° C. at a flow rate of 50 μl/min with 60 seconds association and dissociation between 400 and 1,200 seconds depending upon the individual peptide. Data were corrected for DMSO excluded volume effects. All data were double-referenced for blank injections and reference surface using standard processing procedures and data processing and kinetic fitting were performed using Scrubber software, version 2.0c (BioLogic Software). Data were fitted using simple 1:1 binding model allowing for mass transport effects where appropriate.

[2] = test system: MDA-MB-468 xenograft; assay: Example 4: in vivo efficacy in MDA-MB-468 xenograft (breast cancer model) in Balb/c nude mice; parameters: species or system Mus Musculus
[3] = test system: NCI-H292 xenograft; assay: Example 9.5: in vivo efficacy in NCI-H292 xenograft in Balb/c nude mice; parameters: species or system Mus Musculus; settings: for TGI / Tumor volume (TV): day 14; for Tumor volume: 3 mpk, biw

## CC[C@H](C)C(C(CC(=O)N1CCC[C@H]1[C@H](OC)[C@@H](C)C(=O)NC(C)[C@@H](O)c1ccccc1)OC)N(C)C(=O)[C@@H](NC(=O)C(C(C)C)N(C)C(=O)OCc1ccc(NC(=O)[C@H](CCCNC(N)=O)NC(=O)C(NC(=O)CCCC(=O)NCCC(=O)N(C)CC(=O)N(C)CC(=O)N(C)CC(=O)N(C)CC(=O)N(C)CC(=O)N(C)CC(=O)N(C)CC(=O)N(C)CC(=O)N(C)CC(=O)N(C)CC(=O)N[C@H]2CSCCC(=O)N3CN4CN(C3)C(=O)CCSC[C@H](NC(=O)[C@@H](CC(=O)O)NC(=O)[C@H](Cc3cccc5ccccc35)NC(=O)[C@@H]3CCCN3C2=O)C(=O)N[C@@H](CCSC)C(=O)N[C@@H](CCCCNC(=N)N)C(=O)N[C@@H](CC(=O)O)C(=O)N[C@@H](Cc2c[nH]c3ccccc23)C(=O)N[C@@H](CO)C(=O)N[C@@H]([C@@H](C)O)C(=O)N2CCC[C@H]2C(=O)N2C[C@H](O)C[C@H]2C(=O)N[C@@H](Cc2c[nH]c3ccccc23)C(=O)N[C@H](C(N)=O)CSCCC4=O)C(C)C)cc1)C(C)C (stereo partly drawn) [BCY8245, MMAE-PABC-Cit-Val-Glutaryl-BCY8234] (I: [Sar][Sar][Sar][Sar][Sar][Sar][Sar][Sar][Sar][Sar]CP[1Nal][dD]CM[hArg]DWSTP[Hyp]WC-NH2 / II: [ξV][Cit][PABC][ξNMeV]V[X1][Dolaproine]-X2; linker I:11-I:15-I:25 via TATA; linker I:N-II:N via X3)
[1]
  binding to human Nectin-4 in the SPR binding assay (in words): excellent binding
[1]; read-out: Human SPR Kd, bicyclic drug conjugates (Table 4)
  Kd: 5.12 nM
[2]; 3 mg/kg biw, day 21
  TGI: 169.8%
  Tumor volume (TV): 22 mm^3
[2]; 3 mg/kg qw, day 21
  TGI: 144.2%
  Tumor volume (TV): 85 mm^3
[2]; 5 mg/kg qw, day 21
  TGI: 168.4%
  Tumor volume (TV): 29 mm^3
[2]; 3 mpk, biw, iv, day 0 after start of treatment
  Tumor volume: 195 ± 33 mm^3
[2]; 3 mpk, biw, iv, day 2
  Tumor volume: 193 ± 27 mm^3
[2]; 3 mpk, biw, iv, day 4
  Tumor volume: 154 ± 20 mm^3
[2]; 3 mpk, biw, iv, day 7
  Tumor volume: 103 ± 20 mm^3
[2]; 3 mpk, biw, iv, day 9
  Tumor volume: 83 ± 16 mm^3
[2]; 3 mpk, biw, iv, day 11
  Tumor volume: 67 ± 14 mm^3
[2]; 3 mpk, biw, iv, day 14
  Tumor volume: 49 ± 11 mm^3
[2]; 3 mpk, biw, iv, day 16
  Tumor volume: 45 ± 14 mm^3
[2]; 3 mpk, biw, iv, day 18
  Tumor volume: 32 ± 12 mm^3
[2]; 3 mpk, biw, iv, day 21
  Tumor volume: 22 ± 4 mm^3
[2]; 3 mpk, biw, day 21
  T/C: 4.9%
  TGI: 169.8%
[2]; 3 mpk, biw, day 21, Mean ± SEM (Table 22)
  Tumor volume: 22 ± 4 mm^3
[2]; 3 mpk, qw, iv, day 0 after start of treatment
  Tumor volume: 194 ± 12 mm^3
[2]; 3 mpk, qw, iv, day 2
  Tumor volume: 192 ± 26 mm^3
[2]; 3 mpk, qw, iv, day 4
  Tumor volume: 184 ± 20 mm^3
[2]; 3 mpk, qw, iv, day 7
  Tumor volume: 131 ± 20 mm^3
[2]; 3 mpk, qw, iv, day 9
  Tumor volume: 113 ± 17 mm^3
[2]; 3 mpk, qw, iv, day 11
  Tumor volume: 104 ± 13 mm^3
[2]; 3 mpk, qw, iv, day 14
  Tumor volume: 94 ± 25 mm^3
[2]; 3 mpk, qw, iv, day 16
  Tumor volume: 81 ± 23 mm^3
[2]; 3 mpk, qw, iv, day 18
  Tumor volume: 87 ± 23 mm^3
[2]; 3 mpk, qw, iv, day 21
  Tumor volume: 85 ± 31 mm^3
[2]; 3 mpk, qw, day 21
  T/C: 18.9%
  TGI: 144.2%
[2]; 3 mpk, qw, day 21, Mean ± SEM (Table 22)
  Tumor volume: 85 ± 31 mm^3
[2]; 5 mpk, qw, dosing suspended from day 21, day 23
  Tumor volume: 35 ± 5 mm^3
[2]; 5 mpk, qw, dosing suspended from day 21, day 25
  Tumor volume: 48 ± 5 mm^3
[2]; 5 mpk, qw, dosing suspended from day 21, day 28
  Tumor volume: 37 ± 7 mm^3
[2]; 5 mpk, qw, dosing suspended from day 21, day 32
  Tumor volume: 28 ± 6 mm^3
[2]; 5 mpk, qw, dosing suspended from day 21, day 35
  Tumor volume: 24 ± 4 mm^3
[2]; 5 mpk, qw, dosing suspended from day 21, day 39
  Tumor volume: 28 ± 6 mm^3
[2]; 5 mpk, qw, dosing suspended from day 21, day 42
  Tumor volume: 26 ± 6 mm^3
[2]; 5 mpk, qw, iv, day 0 after start of treatment
  Tumor volume: 199 ± 28 mm^3
[2]; 5 mpk, qw, iv, day 2
  Tumor volume: 193 ± 11 mm^3
[2]; 5 mpk, qw, iv, day 4
  Tumor volume: 135 ± 4 mm^3
[2]; 5 mpk, qw, iv, day 7
  Tumor volume: 98 ± 5 mm^3
[2]; 5 mpk, qw, iv, day 9
  Tumor volume: 58 ± 5 mm^3
[2]; 5 mpk, qw, iv, day 11
  Tumor volume: 49 ± 5 mm^3
[2]; 5 mpk, qw, iv, day 14
  Tumor volume: 47 ± 2 mm^3
[2]; 5 mpk, qw, iv, day 16
  Tumor volume: 37 ± 4 mm^3
[2]; 5 mpk, qw, iv, day 18
  Tumor volume: 35 ± 3 mm^3
[2]; 5 mpk, qw, iv, day 21
  Tumor volume: 29 ± 3 mm^3
[2]; 5 mpk, qw, day 21
  T/C: 6.6%
  TGI: 168.4%
[2]; 5 mpk, qw, day 21, Mean ± SEM (Table 22)
  Tumor volume: 29 ± 3 mm^3
[2]; mouse, in vivo
  anti-tumour activity (in words): good anti-tumour activity
[3]; 3 mg/kg biw
  TGI: 112.2%
  Tumor volume (TV): 65 mm^3
[3]; 3 mg/kg qw
  TGI: 101.4%
  Tumor volume (TV): 149 mm^3
[3]; 5 mg/kg qw
  TGI: 109.8%
  Tumor volume (TV): 83 mm^3
[3]; day 0 after the start of treatment
  Tumor volume: 162 mm^3
[3]; day 2
  Tumor volume: 243 mm^3
[3]; day 4
  Tumor volume: 211 mm^3
[3]; day 7
  Tumor volume: 101 mm^3
